Bounds are passed on as bounds.

Experimental findings from patent US20110224210A1, “NOVEL BIS-AMIDES AS ANTI-MALARIAL AGENTS” (priority 2008, published 2011) are described below.

This test concerns P. falciparum K1 (strain resistant to chloroquine and pyrimethamine), erythrocytic stages. The test is described as follows: Plasmodium falciparum in vitro assay, [3H] hypoxanthine incorporation. It is filed as cell-based. The following applies: Plasmodium falciparum, K1, P. falciparum strain K1; [3H] hypoxanthine incorporation; read-out: IC50 (nM) on K1. A digest of the protocol: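 K1 strain parasites grown in human red cells, 2.5% haematocrit, 0.3% parasitaemia, 37 °C, 4% CO2/3% O2; compounds in seven serial doubling dilutions.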
On to `CN(CCN(C)C(=O)[C@H](Cc1ccccc1)N(Cc1ccc(N2CCOCC2)cc1)C(=O)C=Cc1ccc(C(F)(F)F)cc1)Cc1cccc(C#N)c1` [Example 261, (S)-N-[1-({2-[(3-Cyano-benzyl)-methyl-amino]-ethyl}-methyl-carbamoyl)-2-phenyl-ethyl]-N-(4-morpholin-4-yl-benzyl)-3-(4-trifluoromethyl-phenyl)-acrylamide], for which the IC50 turned out to be 48 nM.
The value for `COCCN(C)C(=O)[C@H](Cc1ccccc1)N(Cc1ccc(-c2cccnc2)cc1)C(=O)C=Cc1ccc(OC)nc1` [Example 135, (S)-N-{1-[(2-Methoxy-ethyl)-methyl-carbamoyl]-2-phenyl-ethyl}-3-(6-methoxy-pyridin-3-yl)-N-(4-pyridin-3-yl-benzyl)-acrylamide] was less than 8 nM; that for `CC(=O)N1CCN(c2ccc(CN(C(=O)C=Cc3ccc(C(F)(F)F)cc3)[C@@H](Cc3ccccc3)C(=O)N(C)CCOCc3ccc(C(F)(F)F)o3)cc2)CC1` [Example 206, (S)-N-[4-(4-Acetyl-piperazin-1-yl)-benzyl]-N-(1-{methyl-[2-(5-trifluoromethyl-furan-2-ylmethoxy)-ethyl]-carbamoyl}-2-phenyl-ethyl)-3-(4-trifluoromethyl-phenyl)-acrylamide] was 81 nM.
As for `Cc1nc(C=CC(=O)N(Cc2ccc(-c3ccncc3)cc2)[C@@H](Cc2ccccc2)C(=O)N2CCC(N(C)C)CC2)c(C)o1` [Example 25, (S)-N-[1-Benzyl-2-(4-dimethylamino-piperidin-1-yl)-2-oxo-ethyl]-3-(2,5-dimethyl-oxazol-4-yl)-N-(4-pyridin-4-yl-benzyl)-acrylamide], the IC50 was 90 nM.
The value for `CC(=O)N1CCN(c2ccc(CN(C(=O)C=Cc3ccc(C(F)(F)F)nc3)[C@@H](Cc3ccccc3)C(=O)N(C)CCOCc3cc(C)on3)cc2)CC1` [Example 209, (S)-N-[4-(4-Acetyl-piperazin-1-yl)-benzyl]-N-(1-{methyl-[2-(5-methyl-isoxazol-3-ylmethoxy)-ethyl]-carbamoyl}-2-phenyl-ethyl)-3-(6-trifluoromethyl-pyridin-3-yl)-acrylamide] was 31 nM; that for `CN(C)CCNC(=O)[C@H](Cc1ccccc1)N(Cc1ccc(-c2ccccn2)cc1)C(=O)C=Cc1ccc(C(F)(F)F)cc1` [Example 156] was 382 nM.
The value for `O=C([C@H](Cc1ccccc1)N(Cc1ccccn1)C(=O)C=Cc1ccc(C(F)(F)F)cc1)N1CCC(Cc2ccccc2)CC1` [Example 44, (S)-N-[1-Benzyl-2-(4-benzyl-piperidin-1-yl)-2-oxo-ethyl]-N-pyridin-2-ylmethyl-3-(4-trifluoromethyl-phenyl)-acrylamide] was 14 nM; that for `COCCN(C)C(=O)[C@H](Cc1ccccc1)N(Cc1ccc(-c2ccccn2)cc1)C(=O)C=Cc1cnc(C)n1C` [Example 76, (S)-3-(2,3-Dimethyl-3H-imidazol-4-yl)-N-{1-[(2-methoxy-ethyl)-methyl-carbamoyl]-2-phenyl-ethyl}-N-(4-pyridin-2-yl-benzyl)-acrylamide] was 163 nM.
Then `O=C([C@H](Cc1ccccc1)N(Cc1ccc(-c2ccccn2)cc1)C(=O)C=Cc1ccc(C(F)(F)F)nc1)N1Cc2ccccc2C1` [Example 58, (S)-N-[1-Benzyl-2-(1,3-dihydro-isoindol-2-yl)-2-oxo-ethyl]-N-(4-pyridin-2-yl-benzyl)-3-(6-trifluoromethyl-pyridin-3-yl)-acrylamide], with 50 nM; and `CN(C)C1CCN(C(=O)C(Cc2cnn(C)c2)N(Cc2ccc(-c3ccncc3)cc2)C(=O)C=Cc2ccc(C(F)(F)F)cc2)CC1` (racemic) [Example 139], with 155 nM; and `CN(CCN(C)C(=O)[C@H](Cc1ccccc1)N(Cc1ccc(-c2ccccn2)cc1)C(=O)C=Cc1ccc(C(F)(F)F)cc1)Cc1cccs1` [Example 225, (S)-N-(1-{Methyl-[2-(methyl-thiophen-2-ylmethyl-amino)-ethyl]-carbamoyl}-2-phenyl-ethyl)-N-(4-pyridin-2-yl-benzyl)-3-(4-trifluoromethyl-phenyl)-acrylamide], with 20 nM.
Take `CN(C)C1CCN(C(=O)C(Cc2cnn(C)c2)N(Cc2ccc(-c3ccccn3)cc2)C(=O)C=Cc2ccc(C(F)(F)F)cc2)CC1` (racemic) [Example 137]: the IC50 came to 413 nM.
Regarding `CN(C)C1CCN(C(=O)[C@H](Cc2ccccc2)N(Cc2ccc(-c3ccccn3)cc2)C(=O)C=Cc2ccc(C(F)(F)F)nc2)CC1` [Example 7, (S)-N-[1-Benzyl-2-(4-dimethylamino-piperidin-1-yl)-2-oxo-ethyl]-N-(4-pyridin-2-yl-benzyl)-3-(6-trifluoromethyl-pyridin-3-yl)-acrylamide], the IC50 was determined as 14 nM.
For the molecule `CN(CCN(C)C(=O)[C@H](Cc1ccccc1)N(Cc1ccc(-c2ccccn2)cc1)C(=O)C=Cc1ccc(C(F)(F)F)cc1)Cc1ccc(Br)o1` [Example 219, (S)-N-[1-({2-[(5-Bromo-furan-2-ylmethyl)-methyl-amino]-ethyl}-methyl-carbamoyl)-2-phenyl-ethyl]-N-(4-pyridin-2-yl-benzyl)-3-(4-trifluoromethyl-phenyl)-acrylamide], the IC50 is 52 nM.
Then `COCCN(C)C(=O)[C@H](Cc1ccccc1)N(Cc1ccc(-c2ccccn2)cc1)C(=O)C=Cc1ccn(C)n1` [Example 73, (S)-N-{1-[(2-Methoxy-ethyl)-methyl-carbamoyl]-2-phenyl-ethyl}-3-(1-methyl-1H-pyrazol-3-yl)-N-(4-pyridin-2-yl-benzyl)-acrylamide], with 156 nM; and `O=C([C@H](Cc1ccccc1)N(Cc1ccc(-c2cncnc2)cc1)C(=O)C=Cc1ccc(C(F)(F)F)cc1)N1CCc2ccccc21` [Example 57, (S)-N-[1-Benzyl-2-(2,3-dihydro-indol-1-yl)-2-oxo-ethyl]-N-(4-pyrimidin-5-yl-benzyl)-3-(4-trifluoromethyl-phenyl)-acrylamide], with 89 nM.
Then `CC(=O)N1CCN(c2ccc(CN(C(=O)C=Cc3ccc(C(F)(F)F)cc3)[C@@H](Cc3ccccc3)C(=O)N(C)CCOCc3cccnc3)cc2)CC1` [Example 190, (S)-N-[4-(4-Acetyl-piperazin-1-yl)-benzyl]-N-(1-{methyl-[2-(pyridin-3-ylmethoxy)-ethyl]-carbamoyl}-2-phenyl-ethyl)-3-(4-trifluoromethyl-phenyl)-acrylamide, formic acid], with 7 nM.
Then `CCc1ccc(CN(C(=O)C=Cc2ccc(C)cc2)[C@@H](Cc2ccccc2)C(=O)N(C)CCOC)cc1` [Example 161, (S)-N-(4-Ethyl-benzyl)-N-{1-[(2-methoxy-ethyl)-methyl-carbamoyl]-2-phenyl-ethyl}-3-p-tolyl-acrylamide], with 49 nM; and `Cc1ccc(C=CC(=O)N(Cc2ccc(-c3ccccn3)cc2)[C@@H](Cc2ccccc2)C(=O)N2CCC(N(C)C)CC2)nc1` [Example 15, (S)-N-[1-Benzyl-2-(4-dimethylamino-piperidin-1-yl)-2-oxo-ethyl]-3-(5-methyl-pyridin-2-yl)-N-(4-pyridin-2-yl-benzyl)-acrylamide], with 163 nM.
On to `COCCN(C)C(=O)C(Cn1cccc1)N(Cc1ccc(-c2ccncc2)cc1)C(=O)C=Cc1ccc(C(F)(F)F)cc1` (racemic) [Example 282], for which the IC50 worked out at 35 nM.

As a reminder, the IC50 is the concentration that gives 50% inhibition.
